Experiments:
Format in all cases: cell-based, human
IMR-90 fibroblasts [1] = assay: Oncogenic ras-induced senescence of IMR-90 fibroblasts; settings: RasV12 lentivirus, 7 days treatment
From the text: (§1) Senescence was induced by irradiation with 10 Gy of ionizing radiation. Non-senescent controls (proliferating or quiescent) were placed in the irradiator for an identical period of time without turning on the irradiator. Oncogene-induced senescence was induced via lentiviral overexpression of HRAS^V12, as described previously (Wiley et al. (2016) Cell Metab. 23: 303-314).

IMR-90 fibroblasts [2] = settings: for number of cells following irradiation: 5 Gy IR, 10 days
Procedure: Human fetal lung fibroblasts (IMR-90) were cultured in Dulbecco's modified eagle medium (DMEM) supplemented with 10% FBS and penicillin/streptomycin. LL 29 (AnHa) cells were obtained from the ATCC and growth to confluence using the ATCC protocol, but were subcultured as described for IMR-90 before initiation of all experiments. Quiescence was induced by replacing culture media with media containing 0.2% FBS. MCF-7 and MDA-MB-231 breast cancer cells were cultured in RPMI supplemented with 10% FBS and penicillin/streptomycin. All cells were cultured at 3% O2, and used between 25 and 40 population doublings. All cells were mycoplasma free.
RNA was extracted from cells or tissues using commercially available kits (Isolate II—Bioline for cells; Direct-zol—Zymo for tissues) according to the manufacturer's instructions. cDNA synthesis was performed using a High Capacity cDNA Reverse Transcription Kit (Thermo Fisher) according to the manufacturer's instructions. Quantitative PCR was performed on a LightCycler 480 II (Roche) using primers and probes designed for the Universal Probe Library. Primers and probes used for human transcripts were ACTB: 5′-CCAACCGCGAGAAGATGA (SEQ ID NO:1), 5′-TCCATCACGATGCCAGTG (SEQ ID NO:2), Probe #64; TUBA: 5′-cttcgtctccgccatcag (SEQ ID NO:3), 5′-ttgccaatctggacacca (SEQ ID NO:4), Probe #58; ALOX5: 5′-[…] (SEQ ID NO:5), 5′-[…] (SEQ ID NO:6), Probe #64; ALOX5AP: 5′-ggtctgcggggctacttt (SEQ ID NO:7), 5′-[…] (SEQ ID NO:8), Probe #18; ALOX12: 5′-[…] (SEQ ID NO:9), 5′-agccaggtcgtcaggag (SEQ ID NO:10), Probe #32; ALOX15: 5′-[…] (SEQ ID NO:11), 5′-[…] (SEQ ID NO:12), Probe #76; ALOX15B: 5′-[…] (SEQ ID NO:13), 5′-actgggaggcgaagaagg (SEQ ID NO:14), Probe #51; AKR1C1: 5′-catgcctgtcctgggattt (SEQ ID NO:15), 5′-[…] (SEQ ID NO:16), Probe #49; AKR1C2: 5′-ctatgcgcctgcagaggt (SEQ ID NO:17), 5′-[…] (SEQ ID NO:18), Probe #31; AKR1C3: 5′-[…] (SEQ ID NO:19), 5′-[…] (SEQ ID NO:20), Probe #78; CYSLTR2: 5′-[…] (SEQ ID NO:21), 5′-[…] (SEQ ID NO:22), Probe #18; DPEP1: 5′-gacgtcctgaggctggtg (SEQ ID NO:23), 5′-[…] (SEQ ID NO:24), Probe #9 (SEQ ID NO:25), ELOVL2: 5′-[…] (SEQ ID NO:26), 5′-[…] (SEQ ID NO:27), Probe #53; ELOVL4: 5′-catttggcccatggattc (SEQ ID NO:28), 5′-[…] (SEQ ID NO:29), Probe #31; ELOVL5: 5′-cccttccatgcgtccata (SEQ ID NO:30), 5′-[…] (SEQ ID NO:31), Probe #31; EPHX2: 5′-ttctgctggacaccctgaa (SEQ ID NO:32), 5′-[…] (SEQ ID NO:33), Probe #45; GPX4: 5′-ttcccgtgtaaccagttcg (SEQ ID NO:34), 5′-[…] (SEQ ID NO:35), Probe #36; LTA4H: 5′-ctgctctcacggtccagtc (SEQ ID NO:36), 5′-[…] (SEQ ID NO:37), Probe #64; LTBR2: 5′-[…] (SEQ ID NO:38), 5′-[…] (SEQ ID NO:39), Probe #33; LTC4S: 5′-[…] (SEQ ID NO:40), 5′-[…] (SEQ ID NO:41), Probe #18; PTGDS: 5′-[…] (SEQ ID NO:42), 5′-[…] (SEQ ID NO:43), Probe #36; PTGES: 5′-agagatgcctgcccacag (SEQ ID NO:44), 5′-tggccaccacgtacatctt (SEQ ID NO:45), Probe #4; PTGES2: 5′-[…] (SEQ ID NO:46), 5′-[…] (SEQ ID NO:47), Probe #49; PTGES3 (SEQ ID NO:48), 5′-[…] (SEQ ID NO:49), 5′-[…] (SEQ ID NO:50), Probe #48; PTGIS: 5′-[…] (SEQ ID NO:51), 5′-[…] (SEQ ID NO:52), Probe #45; PTGR1: 5′-atgatggggcagcaagtg (SEQ ID NO:53), 5′-cccatcagaaatggagtgc (SEQ ID NO:54), Probe #64; PTGS1: 5′-[…] (SEQ ID NO:55), 5′-gtggtggtccatgttcctg (SEQ ID NO:56), Probe #81; PTGS2: 5′-gatccccagggctcaaac (SEQ ID NO:57), 5′-[…] (SEQ ID NO:58), Probe #61; TBXAS1: 5′-[…] (SEQ ID NO:59), 5′-tgcctcccgtgtgaatct (SEQ ID NO:60), Probe #73; AREG: 5′-[…] (SEQ ID NO:61), 5′-[…] (SEQ ID NO:62), Probe #73; CCL2: 5′-AGTCTCTGCCGCCCTTCT (SEQ ID NO:63), 5′-GTGACTGGGGCATTGATTG (SEQ ID NO:64), Probe #40; CCL27: 5′-[…] (SEQ ID NO:65), 5′-gctgggtggcagtaggaat (SEQ ID NO:66), Probe #18; CXCL1: 5′-[…] (SEQ ID NO:67), 5′-[…] (SEQ ID NO:68), Probe #52; HGF: 5′-[…] (SEQ ID NO:69), 5′-[…]

IMR-90 fibroblasts [3] = assay: Sensitisation to IR-induced senescence by senescence-equivalent dose of 15d-PGJ2; settings: 1.4 μM
From the text: as §1
SA-Bgal activity was detected as described previously (Dimri et al. (1995) Proc. Natl. Acad. Sci. USA, 92: 9363-9367) using a commercial kit (Biovision).
For EdU labeling, cells were cultured with EdU (10 μM) for 24 h, fixed in 4% buffered formalin for 10 min, washed in PBS, and permeabilized in 0.5% Triton X-100 for 30 min. Cells were treated as instructed by the manufacturer Life Technologies Cat #C10337). For immunofluorescence, cells were blocked in 10% normal goat serum for 30 min, washed, and incubated overnight in antibodies to Ki67 (Abcam) or cleaved caspase 3 (Cell Signaling). Cell were then washed, incubated in fluorescent secondary antibodies, and mounted using vectashield mounting medium with DAPI.

Structure (SMILES)	ras-induced senescence (IL-6 secretion, EdU incorporation, colony formation) (IMR-90 fibroblasts [1])	number of cells following irradiation (IMR-90 fibroblasts [2])	SA-beta-galactosidase, EdU incorporation and cell number versus DMSO (IMR-90 fibroblasts [3]; 10 Gy IR, 10 days)	senescence versus control cells (IMR-90 fibroblasts [3]; lower doses of IR, 10 days)	induction of senescence (IMR-90 fibroblasts [3]; no IR)	cell number relative to DMSO-treated SEN(IR) cells (IMR-90 fibroblasts [2]; SEN(IR) cells counted for IL-6 ELISA normalization)
CC(c1cc2ccccc2s1)N(O)C(N)=O (stereo not shown) [zileuton]	blunting	mildly increased				
CCCCC/C=C/C=C1/C(=O)C=C[C@@H]1C/C=C\CCCC(=O)O [15d-PGJ2]			no differences	more senescent relative to control cells	did not induce senescence on its own	
CS(=O)(=O)Nc1ccc([N+](=O)[O-])cc1OC1CCCCC1 [NS-398]		significantly increased				increase in cell number

Reference: patent publication US20200371122A1, “BIOMARKER FOR SENESCENT CELLS” (Buck Institute for Research on Aging, priority 2017, published 2020)
